Legend:
S. pneumoniae D39V [1] = assay: fitness (endpoint OD595 vs no drug) (fraction); higher = more growth
How it was run: (§1)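 Fitness was defined as the optical density at the transition into stationary phase relative to the robust mean of no-drug control wells. Values were capped at 1. Cultures were started at OD595 0.01 in 384-well plates (30 µl, or 55 µl for S. pneumoniae) in TSB, LB Lennox or CY at 37 °C. OD595 was recorded every 30 min over 14 h, with the first reading subtracted as background.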

B. subtilis 168 [2] = assay: as above
How it was run: as §1

S. pneumoniae D39V [3] = assay: Bliss interaction score (quartile over a dose matrix) (fitness difference); higher = more antagonism (negative = synergy)
How it was run: (§2)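 Quartiles of the Bliss score were taken over technical, biological and donor/recipient replicates. That score is observed fitness minus the product of the single-drug fitness values, which were inferred from combination data. Fitness itself is OD595 at entry into stationary phase divided by the plate's robust no-drug mean, with a cap at 1.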

S. aureus DSM 20231 = assay: as above
How it was run: as §2

S. aureus Newman = assay: as above
How it was run: as §2

B. subtilis 168 [4] = assay: as above
How it was run: as §2
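Wherever Bliss interaction score (quartile over a dose matrix) is given: first quartile when negative (synergy) and third quartile when positive (antagonism).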

C[C@H]1c2cccc(O)c2C(=O)C2=C(O)[C@]3(O)C(=O)C(C(N)=O)=C(O)[C@@H](N(C)C)[C@@H]3[C@@H](O)[C@@H]21 [Doxycycline] + CC1=C\[C@@H](O)CC(=O)Cc2nc(co2)C(=O)N2CCC=C2C(=O)O[C@H](C(C)C)[C@H](C)/C=C/C(=O)NC\C=C\1 [Virginiamycin M1]
S. pneumoniae D39V [1], one replicate
Settings | fitness
first compound 0.003875 µg/mL, partner 0.5 µg/mL | ≥ 1
first compound 0.003875 µg/mL, partner 1 µg/mL | ≥ 1
first compound 0.003875 µg/mL, partner 2 µg/mL | ≥ 1
first compound 0.00775 µg/mL, partner 0.5 µg/mL | 0.995
first compound 0.00775 µg/mL, partner 1 µg/mL | ≥ 1
first compound 0.00775 µg/mL, partner 2 µg/mL | ≥ 1
first compound 0.0155 µg/mL, partner 0.15 µg/mL | 0.887
first compound 0.0155 µg/mL, partner 0.3 µg/mL | 0.823
first compound 0.031 µg/mL, partner 0.15 µg/mL | 0.878
first compound 0.031 µg/mL, partner 0.3 µg/mL | 0.819
first compound 0.062 µg/mL, partner 0.15 µg/mL | 0.793
first compound 0.062 µg/mL, partner 0.3 µg/mL | 0.762

fitness
Settings | first compound 0.0155 µg/mL | first compound 0.02 µg/mL | first compound 0.031 µg/mL | first compound 0.04 µg/mL | first compound 0.062 µg/mL | first compound 0.08 µg/mL
B. subtilis 168 [2], partner 0.0625 µg/mL | – | 0.898 | – | 0.805 | – | 0.572
B. subtilis 168 [2], partner 0.125 µg/mL | – | 0.899 | – | 0.726 | – | 0.458
B. subtilis 168 [2], partner 0.25 µg/mL | – | 0.936 | – | 0.806 | – | 0.491
S. pneumoniae D39V [1], partner 0.5 µg/mL | 0.968 | – | 0.902 | – | 0.813 | –
S. pneumoniae D39V [1], partner 1 µg/mL | 0.998 | – | 0.847 | – | 0.831 | –
S. pneumoniae D39V [1], partner 2 µg/mL | 0.904 | – | 0.794 | – | 0.758 | –

Settings | Bliss interaction score
B. subtilis 168 [4] | 0.0353
S. aureus DSM 20231 | -0.151
S. aureus Newman | -0.0791
S. pneumoniae D39V [3] | 0.0434

C[C@H]1c2cccc(O)c2C(=O)C2=C(O)[C@]3(O)C(=O)C(C(N)=O)=C(O)[C@@H](N(C)C)[C@@H]3[C@@H](O)[C@@H]21 [Doxycycline] + C[C@H]1COc2c(N3CCN(C)CC3)c(F)cc3c(=O)c(C(=O)O)cn1c23 [Levofloxacin]
fitness, one replicate
Settings | first compound 0.003875 µg/mL | first compound 0.00775 µg/mL | first compound 0.02 µg/mL | first compound 0.031 µg/mL | first compound 0.04 µg/mL | first compound 0.062 µg/mL | first compound 0.08 µg/mL
B. subtilis 168 [2], partner 0.001 µg/mL | – | – | 0.929 | – | 0.859 | – | 0.735
B. subtilis 168 [2], partner 0.0078 µg/mL | – | – | 0.989 | – | 0.859 | – | 0.712
S. pneumoniae D39V [1], partner 0.2 µg/mL | 0.984 | 0.927 | – | 0.822 | – | 0.712 | –
S. pneumoniae D39V [1], partner 0.4 µg/mL | 0.858 | 0.838 | – | 0.816 | – | 0.687 | –
S. pneumoniae D39V [1], partner 0.8 µg/mL | 0.581 | 0.62 | – | 0.697 | – | 0.595 | –

Settings | fitness
B. subtilis 168 [2], first compound 0.02 µg/mL, partner 0.002 µg/mL | 0.937
B. subtilis 168 [2], first compound 0.02 µg/mL, partner 0.0039 µg/mL | 0.939
B. subtilis 168 [2], first compound 0.02 µg/mL, partner 0.0312 µg/mL | 0.0328
B. subtilis 168 [2], first compound 0.02 µg/mL, partner 0.0625 µg/mL | 0.0358
B. subtilis 168 [2], first compound 0.02 µg/mL, partner 0.125 µg/mL | 0.0474
B. subtilis 168 [2], first compound 0.04 µg/mL, partner 0.002 µg/mL | 0.784
B. subtilis 168 [2], first compound 0.04 µg/mL, partner 0.0039 µg/mL | 0.817
B. subtilis 168 [2], first compound 0.04 µg/mL, partner 0.0312 µg/mL | 0.0347
B. subtilis 168 [2], first compound 0.04 µg/mL, partner 0.0625 µg/mL | 0.032
B. subtilis 168 [2], first compound 0.04 µg/mL, partner 0.125 µg/mL | 0.0298
B. subtilis 168 [2], first compound 0.08 µg/mL, partner 0.002 µg/mL | 0.656
B. subtilis 168 [2], first compound 0.08 µg/mL, partner 0.0039 µg/mL | 0.681
B. subtilis 168 [2], first compound 0.08 µg/mL, partner 0.0312 µg/mL | 0.0307
B. subtilis 168 [2], first compound 0.08 µg/mL, partner 0.0625 µg/mL | 0.0405
B. subtilis 168 [2], first compound 0.08 µg/mL, partner 0.125 µg/mL | 0.0329
S. pneumoniae D39V [1], first compound 0.0155 µg/mL, partner 0.1725 µg/mL | 0.895
S. pneumoniae D39V [1], first compound 0.0155 µg/mL, partner 0.2 µg/mL | 0.946
S. pneumoniae D39V [1], first compound 0.0155 µg/mL, partner 0.345 µg/mL | 0.805
S. pneumoniae D39V [1], first compound 0.0155 µg/mL, partner 0.4 µg/mL | 0.887
S. pneumoniae D39V [1], first compound 0.0155 µg/mL, partner 0.69 µg/mL | 0.584
S. pneumoniae D39V [1], first compound 0.0155 µg/mL, partner 0.8 µg/mL | 0.677
S. pneumoniae D39V [1], first compound 0.031 µg/mL, partner 0.1725 µg/mL | 0.889
S. pneumoniae D39V [1], first compound 0.031 µg/mL, partner 0.345 µg/mL | 0.795
S. pneumoniae D39V [1], first compound 0.031 µg/mL, partner 0.69 µg/mL | 0.485
S. pneumoniae D39V [1], first compound 0.062 µg/mL, partner 0.1725 µg/mL | 0.873
S. pneumoniae D39V [1], first compound 0.062 µg/mL, partner 0.345 µg/mL | 0.775
S. pneumoniae D39V [1], first compound 0.062 µg/mL, partner 0.69 µg/mL | 0.652

Settings | Bliss interaction score
B. subtilis 168 [4] | 0.043
S. aureus DSM 20231 | 0.075
S. aureus Newman | 0.0574
S. pneumoniae D39V [3] | 0.0649

— the supplement of paper PMC10627819
